Tested on: SEM cells
Test: cell viability relative to DMSO control; higher = less cytotoxic
Conditions: 48 h
How it was run: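 In 1536-well plates, 5 μl of leukemia cells were seeded per well: 500 cells/well for NOMO1 or SEM and 1000 cells/well for P12-Ichikawa. Each line had first been adapted for at least four passages in each medium. Library compounds in DMSO were pin-dosed at 11 threefold concentrations between 47 μM and 0.79 nM, and CellTiter-Glo One luminescence was read after 48 h at 37°C. Viability is a per-plate percentage relative to DMSO wells, with cell-free wells as background.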

[1] = HPLM + 10% dialyzed FBS, 0.000781 µM
[2] = HPLM + 10% dialyzed FBS, 0.00234 µM
[3] = HPLM + 10% dialyzed FBS, 0.00702 µM
[4] = HPLM + 10% dialyzed FBS, 0.0211 µM
[5] = HPLM + 10% dialyzed FBS, 0.0632 µM
[6] = HPLM + 10% dialyzed FBS, 0.19 µM
[7] = HPLM + 10% dialyzed FBS, 0.569 µM
[8] = HPLM + 10% dialyzed FBS, 1.71 µM
[9] = HPLM + 10% dialyzed FBS, 5.12 µM
[10] = HPLM + 10% dialyzed FBS, 15.4 µM
[11] = HPLM + 10% dialyzed FBS, 46.1 µM
[12] = RPMI 5 mM glucose + 10% FBS, 0.000781 µM
[13] = RPMI 5 mM glucose + 10% FBS, 0.00234 µM
[14] = RPMI 5 mM glucose + 10% FBS, 0.00702 µM
[15] = RPMI 5 mM glucose + 10% FBS, 0.0211 µM
[16] = RPMI 5 mM glucose + 10% FBS, 0.0632 µM
[17] = RPMI 5 mM glucose + 10% FBS, 0.19 µM
[18] = RPMI 5 mM glucose + 10% FBS, 0.569 µM
[19] = RPMI 5 mM glucose + 10% FBS, 1.71 µM
[20] = RPMI 5 mM glucose + 10% FBS, 5.12 µM
[21] = RPMI 5 mM glucose + 10% FBS, 15.4 µM
[22] = RPMI 5 mM glucose + 10% FBS, 46.1 µM
[23] = RPMI 5 mM glucose + 10% dialyzed FBS, 0.000781 µM
[24] = RPMI 5 mM glucose + 10% dialyzed FBS, 0.00234 µM
[25] = RPMI 5 mM glucose + 10% dialyzed FBS, 0.00702 µM
[26] = RPMI 5 mM glucose + 10% dialyzed FBS, 0.0211 µM
[27] = RPMI 5 mM glucose + 10% dialyzed FBS, 0.0632 µM
[28] = RPMI 5 mM glucose + 10% dialyzed FBS, 0.19 µM
[29] = RPMI 5 mM glucose + 10% dialyzed FBS, 0.569 µM
[30] = RPMI 5 mM glucose + 10% dialyzed FBS, 1.71 µM
[31] = RPMI 5 mM glucose + 10% dialyzed FBS, 5.12 µM
[32] = RPMI 5 mM glucose + 10% dialyzed FBS, 15.4 µM
[33] = RPMI 5 mM glucose + 10% dialyzed FBS, 46.1 µM

Compound	cell viability [1]	cell viability [2]	cell viability [3]	cell viability [4]	cell viability [5]	cell viability [6]	cell viability [7]	cell viability [8]	cell viability [9]	cell viability [10]	cell viability [11]	cell viability [12]	cell viability [13]	cell viability [14]	cell viability [15]	cell viability [16]	cell viability [17]	cell viability [18]	cell viability [19]	cell viability [20]	cell viability [21]	cell viability [22]	cell viability [23]	cell viability [24]	cell viability [25]	cell viability [26]	cell viability [27]	cell viability [28]	cell viability [29]	cell viability [30]	cell viability [31]	cell viability [32]	cell viability [33]
Cc1cnn(C)c1C(=O)Nc1cc(Nc2ccc3c(/C=C/c4ccccn4)n[nH]c3c2)ccc1F	114%	123%	112%	103%	110%	89.6%	72.4%	70.7%	63.4%	49.7%	23.8%	120%	118%	121%	107%	104%	87.8%	67%	62.1%	45.4%	28.4%	4.94%	114%	119%	144%	124%	103%	89.1%	75.9%	68.3%	60.6%	43%	14.2%
C[C@]12CC[C@H]3[C@@H](CC[C@H]4NC(=O)\C=C/[C@]34C)[C@@H]1CC[C@@H]2C(=O)NC5=CC(=CC=C5C(F)(F)F)C(F)(F)F	116%	122%	118%	117%	118%	61.3%	119%	113%	81.1%	111%	99.3%	123%	120%	138%	132%	120%	115%	124%	129%	56%	128%	126%	114%	141%	120%	126%	121%	100%	126%	121%	37.1%	117%	105%
CC1CNc2c(cccc2[S+](=O)([O-])N[C@@H](CCCNC(=N)N)C(=O)N2CC[C@@H](C)C[C@@H]2C(=O)O)C1 (some centres not stated)	88%	94.7%	102%	111%	98.2%	117%	117%	124%	106%	128%	95.6%	85.6%	90%	96.4%	108%	75.7%	103%	113%	97.1%	101%	107%	103%	70%	90.1%	101%	97%	99.1%	103%	107%	106%	110%	84.7%	108%
C[C@@H](Oc1cc(-c2cnn(C3CCNCC3)c2)cnc1N)c1c(Cl)ccc(F)c1Cl	105%	121%	123%	124%	121%	114%	111%	110%	61.6%	35.1%	23.5%	81.4%	78.5%	85.6%	83.6%	82.5%	71.3%	83.4%	77.3%	58.4%	29.5%	13.6%	112%	124%	114%	114%	97.1%	113%	120%	116%	91.5%	33.3%	28.3%
CCC[S+]([O-])c1ccc2[nH]c(NC(=O)OC)nc2c1 (configuration not stated)	78.9%	96.2%	111%	86.7%	100%	105%	83.1%	94.9%	94.6%	38.2%	33.4%	74.9%	99.4%	100%	99.3%	114%	93.9%	82%	84.9%	91.8%	24.4%	32.2%	72.7%	99.8%	95.9%	109%	101%	113%	83.1%	105%	98.6%	23.2%	17.3%
CCOC(=O)c1ccc(OC(=O)CCCCCNC(=N)N)cc1	111%	91.3%	117%	120%	123%	131%	132%	127%	120%	57.9%	39.8%	116%	108%	134%	109%	130%	140%	141%	105%	45.9%	31.8%	27.2%	99.1%	86.9%	142%	132%	109%	117%	123%	125%	95.7%	37.8%	26.4%
O=C1NC(=O)/C(=C/c2ccc3nccc(-c4ccncc4)c3c2)S1	108%	104%	105%	107%	95.5%	74.5%	43.9%	49.5%	19.7%	13.7%	1.01%	115%	116%	134%	116%	108%	86.1%	55.4%	48.2%	23.9%	7.87%	1.09%	105%	103%	101%	111%	96.7%	67.8%	46.9%	43.4%	24.3%	12.8%	0.853%
C[C@]12CC[C@@H]3c4ccc(O)cc4CC[C@H]3[C@@H]1[C@@H](O)[C@@H](O)[C@@H]2O	104%	119%	112%	115%	116%	127%	123%	86%	125%	99.9%	84.1%	87.8%	125%	110%	82%	102%	88.5%	94.2%	80%	99%	99.4%	38.8%	101%	110%	120%	118%	121%	132%	126%	90%	129%	103%	64.5%
Cn1cnc2c(F)c(Nc3ccc(Br)cc3F)c(C(=O)NOCCO)cc21	95.3%	84.2%	93.4%	22%	105%	89.5%	80%	85.4%	87.9%	87.7%	74.3%	85.3%	86.1%	96.9%	16%	94.1%	108%	89.2%	85.9%	87.1%	70.9%	61.6%	88.1%	85.5%	107%	19.6%	87.5%	91.5%	83.1%	70.6%	76.2%	66%	52.8%
CCCCC(=O)O[C@]1(C(=O)CO)[C@H](C)C[C@H]2[C@@H]3CCC4=CC(=O)C=C[C@]4(C)[C@@]3(F)[C@@H](O)C[C@@]21C	102%	122%	111%	96.2%	92.6%	87.1%	83.4%	75.2%	71%	71.4%	70.9%	118%	124%	139%	124%	91.3%	98.2%	84.3%	73.9%	76.7%	70.3%	67.6%	–	–	–	–	–	–	–	–	–	–	–
CC(C)(O)CC[C@@H](O)[C@](C)(O)[C@H]1CC[C@@]2(O)C/3=C/C(=O)[C@@H]4C[C@@H](O)[C@@H](O)C[C@]4(C)[C@H]3CC[C@]12C	115%	107%	112%	97.8%	97.5%	110%	99.7%	103%	93.5%	89.7%	94.7%	96.3%	93.8%	98.3%	93.4%	102%	98.8%	85.2%	97.7%	96.4%	87%	79.8%	104%	106%	103%	80.2%	81.7%	92.8%	77.3%	104%	83.4%	94.2%	74.6%
ClC1=CC=C(C=C1)C(C#N)C2=C(Cl)C=C(C=C2Cl)N3\N=C/C(=O)NC3=O (configuration not stated)	87.4%	43.9%	104%	83.7%	91.8%	94.8%	91.3%	93.9%	86.4%	91.6%	107%	90.6%	47.9%	96.6%	92.5%	87.1%	98.4%	90.1%	90.2%	96.3%	82.3%	76.7%	93.1%	42.5%	99.2%	100%	106%	119%	104%	94.6%	109%	95.8%	89.7%
C[C@@H]1COCCN1c1cc(C2([S@+](C)(=N)[O-])CC2)nc(-c2ccnc3[nH]ccc23)n1	90.4%	100%	98.5%	77.8%	102%	93.4%	95.3%	40.6%	21.5%	21.5%	14%	–	–	–	–	–	–	–	–	–	–	–	81.8%	96%	114%	74.4%	130%	102%	66.3%	42.4%	24.8%	20.6%	10.7%
CN(C)C1CCN(C(=O)c2ccc(NC(=O)Nc3nc(N4CCOCC4)nc(N4CCOCC4)n3)cc2)CC1	83.9%	92.1%	81.5%	67.4%	61.7%	49.7%	41.8%	31.2%	30.9%	23.8%	19.3%	87.9%	78.9%	94.3%	75.1%	65.3%	48.4%	39.3%	27.4%	25.6%	17.8%	11.9%	78.1%	85.8%	79.4%	70.9%	57.2%	52.5%	41.9%	33.4%	32.1%	22%	14.6%
COC(=O)Nc1cc(Nc2cc(NC3CC3)c3ncc(C#N)n3n2)c(Cl)c(N2CCN(C)CC2)c1	97.9%	103%	98.7%	98.5%	98%	102%	86.5%	77.7%	37.9%	5.22%	4.93%	–	–	–	–	–	–	–	–	–	–	–	113%	122%	110%	109%	103%	95%	84.4%	61.9%	29.9%	5.89%	5.24%
